From patent publication US6372733B1, “Hexahydro-5-imino-1,4-1,4-thiazepine derivatives as inhibitors of nitric oxide synthases” (Merck & Co., Inc., priority 1995, dated 2002)
Counter-ions that a name gives are not always drawn. Like-named read-outs stand apart in the source and are kept apart here.

Key:
Type in all cases: biochemical
ncNOS = ncNOS (Homo sapiens, UniProt P29475); test: Assay Protocol for NOS Activity: formation of L-[3H]Citrulline from L-[3H]Arginine, ncNOS
Procedure: (§1) NOS activity is measured as the formation of L-[2,3,4,5-^3H]Citrulline from L-[2,3,4,5-^3H]Arginine. The incubation buffer (100 uL) contained; 100 mM TES, pH 7.5, 5 μM FAD, 5 μM FMN, 10 μM BH4, 0.5 mM NADPH, 0.5 mM DTT, 0.5 mg/mL BSA, 2 mM CaC12, 10 ug/mL calmodulin (bovine), 1 μM L-Arg, 0.2 uCi L-[2,3,4,5-^3H]Arg, and the inhibitor in aqueous DMSO (max. 5%). The reaction is initiated by addition of enzyme. Incubations are performed at room temperature for 30 minutes and stopped by the addition of an equal volume of quenching buffer consisting of 200 mM sodium citrate, pH 2.2, 0.02% sodium azide. Reaction products are separated by passing through a cation exchange resin and quantitated as cpm by scintillation counting.

iNOS = iNOS (Homo sapiens, UniProt P35228); test: Assay Protocol for NOS Activity: formation of L-[3H]Citrulline from L-[3H]Arginine, iNOS
Procedure: as §1

ecNOS = ecNOS (Homo sapiens, UniProt P29474); test: Assay Protocol for NOS Activity: formation of L-[3H]Citrulline from L-[3H]Arginine, ecNOS
Procedure: as §1

[1] = 1 μM L-Arg, room temperature, 30 minutes, read-out: ncNOS (IC50)
[2] = 1 μM L-Arg, room temperature, 30 minutes, read-out: iNOS (IC50)
[3] = 1 μM L-Arg, room temperature, 30 minutes, read-out: ecNOS (IC50)

Q: With `CCC1CSCCC(N)=N1` (stereo not drawn) [Example 14, Hexahydro-5-imino-3-ethyl-1,4-thiazepine Hydrochloride] as the molecule, how does the IC50 (ncNOS; [1]) read?
A: Its IC50 is under 10 µM.

Q: What about the IC50 (iNOS; [2]) of the same molecule?
A: Its IC50 is under 1 µM.

Q: What about the IC50 (ecNOS; [3]) of the same molecule?
A: The IC50 was under 50 µM.

Q: With `C=C(C)CC1CSCCC(=N)N1` (stereo not drawn) [Example 16, Hexahydro-5-imino-3-(2-methyl-3-propenyl)-1,4-thiazepine Hydrochloride.] as the molecule, how does the IC50 (ncNOS; [1]) read?
A: The IC50 was under 10 µM.

Q: What about the IC50 (iNOS; [2]) of the same molecule?
A: Its IC50 is under 1 µM.

Q: And the IC50 (ecNOS; [3])?
A: Its IC50 is under 50 µM.

Q: Which IC50 (ncNOS; [1]) does the source give for `CCCC1CSCCNC1=N` (stereo not drawn) [Example 5, Hexahydro-5-imino-6-propyl-1,4-thiazepine Hydrochloride] here?
A: Its IC50 is over 50 µM.

Q: And the IC50 (iNOS; [2])?
A: The IC50 was over 50 µM.

Q: What about the IC50 (ecNOS; [3]) of the same molecule?
A: Its IC50 is over 50 µM.

Q: With `CC(C)=CCC1CSCCNC1=N` (stereo not drawn) [Example 8, Hexahydro-5-imino-6-(3-methyl-2-n-butenyl)-1,4-thiazepine Hydrochloride] as the molecule, how does the IC50 (ncNOS; [1]) read?
A: Its IC50 is over 50 µM.

Q: And the IC50 (iNOS; [2])?
A: The IC50 was over 50 µM.

Q: What about the IC50 (ecNOS; [3]) of the same molecule?
A: Its IC50 is over 50 µM.

Q: With `CC(C)=CCC1CSCCC(=N)N1` (stereo not drawn) [Example 9, Hexahydro-5-imino-3-(3-methyl-2-n-butenyl)-1,4-thiazepine Hydrochloride] as the molecule, how does the IC50 (ncNOS; [1]) read?
A: Its IC50 is under 50 µM.

Q: And the IC50 (iNOS; [2])?
A: The IC50 was under 1 µM.

Q: What about the IC50 (ecNOS; [3]) of the same molecule?
A: The IC50 was over 50 µM.

Q: For `NC1=NCCNCC1` [Example 1, Hexahydro-5-imino-(1H-1,4-diazepine Dihydrochloride], which IC50 (ncNOS; [1]) is on record?
A: The IC50 was over 50 µM.

Q: And the IC50 (iNOS; [2])?
A: The IC50 was over 50 µM.

Q: And the IC50 (ecNOS; [3])?
A: Its IC50 is over 50 µM.

Q: Which IC50 (ncNOS; [1]) does the source give for `CC(C)CC1CSCCNC1=N` (stereo not drawn) [Example 10, Hexahydro-5-imino-6-(2-methyl-propyl)-1,4-thiazepine Hydrochloride] here?
A: The IC50 was over 50 µM.

Q: What about the IC50 (iNOS; [2]) of the same molecule?
A: Its IC50 is under 50 µM.

Q: And the IC50 (ecNOS; [3])?
A: Its IC50 is over 50 µM.

Q: With `NC1=NCCSCC1` [Example 2, Hexahydro-5-imino-1,4-thiazepine Hydrochloride] as the molecule, how does the IC50 (ncNOS; [1]) read?
A: The IC50 was under 10 µM.

Q: And the IC50 (iNOS; [2])?
A: The IC50 was under 10 µM.

Q: And the IC50 (ecNOS; [3])?
A: The IC50 was over 10 µM.

Q: `CCC[C@H]1CSCCC(N)=N1` [Example 18, Hexahydro-5-imino-3(S)-propyl-1,4-thiazepine, Acetic Acid Salt] was tested. Which IC50 (ncNOS) did it give?
A: Its IC50 is under 1 µM.

Q: And the IC50 (iNOS)?
A: The IC50 was under 1 µM.

Q: And the IC50 (ecNOS)?
A: Its IC50 is under 10 µM.

Q: For `CCC[C@@H]1CSCCC(=N)N1` [Example 19, Hexahydro-5-imino-3(R)-propyl-1,4-thiazepine Acetic Acid Salt], which IC50 (ncNOS) is on record?
A: The IC50 was under 10 µM.

Q: And the IC50 (iNOS)?
A: Its IC50 is under 10 µM.

Q: What about the IC50 (ecNOS) of the same molecule?
A: The IC50 was under 50 µM.

Q: With `N=C1CCS[C@H]2CCCC[C@@H]2N1` (racemic) [Example 17, (±)-trans-Decahydro-4-imino-benzo[b]-1,4-thiazepine Acetic Acid Salt] as the molecule, how does the IC50 (ncNOS; [1]) read?
A: Its IC50 is over 50 µM.

Q: What about the IC50 (iNOS; [2]) of the same molecule?
A: The IC50 was over 50 µM.

Q: What about the IC50 (ecNOS; [3]) of the same molecule?
A: The IC50 was over 50 µM.

Q: With `CCCC1CSCCC(N)=N1` (stereo not drawn) [Example 4, Hexahydro-5-imino-3-propyl-1,4-thiazepine Hydrochloride] as the molecule, how does the IC50 (ncNOS) read?
A: Its IC50 is under 10 µM.

Q: And the IC50 (iNOS)?
A: The IC50 was under 1 µM.

Q: And the IC50 (ecNOS)?
A: Its IC50 is under 50 µM.

Q: How did the IC50 (ncNOS; [1]) turn out when `CN1CCN=C(N)CC1` [Example 20, Hexahydro-5-imino-1-methyl-1H-1,4-diazepine Hydrochloride.] was run?
A: The IC50 was over 50 µM.

Q: And the IC50 (iNOS; [2])?
A: The IC50 was under 50 µM.

Q: What about the IC50 (ecNOS; [3]) of the same molecule?
A: Its IC50 is over 50 µM.

Q: With `CC1CC(N)=NCCS1` (stereo not drawn) [Example 6, Hexahydro-5-imino-7-methyl-1,4-thiazepine Hydrochloride] as the molecule, how does the IC50 (ncNOS; [1]) read?
A: The IC50 was under 1 µM.

Q: And the IC50 (iNOS; [2])?
A: Its IC50 is under 10 µM.

Q: And the IC50 (ecNOS; [3])?
A: Its IC50 is under 10 µM.

Q: How did the IC50 (ncNOS; [1]) turn out when `NC1=NCCOCC1` [Example 3, Hexahydro-5-imino-1,4-oxazepine Hydrochloride.] was run?
A: The IC50 was under 10 µM.

Q: What about the IC50 (iNOS; [2]) of the same molecule?
A: Its IC50 is under 50 µM.

Q: And the IC50 (ecNOS; [3])?
A: Its IC50 is under 50 µM.

Q: Which IC50 (ncNOS; [1]) does the source give for `CC1CN=C(N)CCS1` (stereo not drawn) [Example 7, Hexahydro-5-imino-2-methyl-1,4-thiazepine Hydrochloride] here?
A: The IC50 was under 1 µM.

Q: What about the IC50 (iNOS; [2]) of the same molecule?
A: Its IC50 is under 10 µM.

Q: And the IC50 (ecNOS; [3])?
A: The IC50 was under 10 µM.

Q: What does the source list for `CCCCC1CSCCC(N)=N1` (stereo not drawn) [Example 15, Hexahydro-5-imino-3-butyl-1,4-thiazepine. Hydrochloride]?
A: IC50 (ncNOS; [1]): < 10 µM; IC50 (iNOS; [2]): < 1 µM; IC50 (ecNOS; [3]): > 50 µM

Q: `CC1CSCCN=C1N` (stereo not drawn) [Example 12, Hexahydro-5-imino-6-methyl-1,4-thiazepine Hydrochloride] was tested. Which IC50 (ncNOS; [1]) did it give?
A: Its IC50 is under 10 µM.

Q: What about the IC50 (iNOS; [2]) of the same molecule?
A: The IC50 was over 50 µM.

Q: And the IC50 (ecNOS; [3])?
A: Its IC50 is under 50 µM.

Q: With `CC(C)CC1CSCCC(N)=N1` (stereo not drawn) [Example 11, Hexahydro-5-imino-3-(2-methyl-propyl)-1,4-thiazepine Hydrochloride] as the molecule, how does the IC50 (ncNOS; [1]) read?
A: The IC50 was under 10 µM.

Q: And the IC50 (iNOS; [2])?
A: Its IC50 is under 1 µM.

Q: What about the IC50 (ecNOS; [3]) of the same molecule?
A: The IC50 was over 50 µM.

Q: For `CC1CSCCC(N)=N1` (stereo not drawn) [Example 13, Hexahydro-5-imino-3-methyl-1,4-thiazepine Hydrochloride], which IC50 (ncNOS; [1]) is on record?
A: The IC50 was under 10 µM.

Q: What about the IC50 (iNOS; [2]) of the same molecule?
A: The IC50 was under 1 µM.

Q: What about the IC50 (ecNOS; [3]) of the same molecule?
A: The IC50 was under 10 µM.
